Laboratory results: PMC3015019 (Biological psychiatry, 2010)
pKi: −log10 of the molar value. Counter-ions that a name gives are not always drawn.

Tests used:
[1] = system: DA levels in dialysates from the NAc shell; test: In-vivo microdialysis of extracellular DA in the NAc shell of freely moving rats; conditions: rat; for time for DA levels to return to basal levels after injection: cocaine: highest dose
[2] = molecular target: T1, σ2 receptor (Cavia porcellus, UniProt H0V073); test: Sigma 2 receptor binding, [3H]DTG displacement in presence of; set-up: species or system guinea pig; conditions: ratio of σ2 to σ1 affinity values
T1 sequence (H0V073 1-176): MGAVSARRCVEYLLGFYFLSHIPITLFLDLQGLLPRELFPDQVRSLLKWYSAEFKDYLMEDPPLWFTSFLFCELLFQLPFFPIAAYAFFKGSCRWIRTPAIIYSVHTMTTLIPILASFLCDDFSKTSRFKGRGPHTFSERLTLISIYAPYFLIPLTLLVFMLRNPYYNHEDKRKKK

[3] = molecular target: σ1 receptor (Cavia porcellus, UniProt Q60492); test: Sigma 1 receptor binding, [3H]; set-up: species or system guinea pig
Chain of σ1 receptor (Q60492 whole entry): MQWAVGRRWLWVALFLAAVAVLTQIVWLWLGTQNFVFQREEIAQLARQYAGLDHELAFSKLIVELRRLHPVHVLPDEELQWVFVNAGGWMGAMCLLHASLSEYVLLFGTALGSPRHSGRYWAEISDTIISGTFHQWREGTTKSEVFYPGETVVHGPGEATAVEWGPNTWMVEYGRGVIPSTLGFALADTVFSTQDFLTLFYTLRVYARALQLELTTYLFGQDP

[4] = 10–30 mg/kg i.p., administered alone

## CN(CCc1ccc(Cl)c(Cl)c1)CCN1CCCC1 [BD 1008]
[1]; 10 mg/kg i.p., administered alone
  DA levels at 2 hr after injection, antagonist alone: ~75 % of basal control values

## CN(C)CCN(C)CCc1ccc(Cl)c(Cl)c1 [BD 1047]
[2]
  σ2/σ1: 15.2

## CN1CCN(CCc2ccc(Cl)c(Cl)c2)CC1 [BD 1063]
[1]; [4]
  later decrease in DA levels, antagonist alone: about 80 % of baseline
  transient (<30 min) non-significant increase in DA levels, antagonist alone: about 30%
[2]
  σ2/σ1: 70.9

## COC(=O)[C@H]1[C@@H](OC(=O)c2ccccc2)C[C@@H]2CC[C@H]1N2C [Cocaine, (−)-cocaine hydrochloride]
[3]
  pKi: 5.28
[1]; i.v.
  time for DA levels to return to basal levels after injection: ≤ 50 min

## Cc1ccccc1N=C(N)Nc1ccccc1C [DTG]
[1]; 3.2 mg/kg i.v.
  time of maximal effect on DA levels: 20 min
[1]; 5.6 mg/kg i.v.
  time of maximal effect on DA levels: ≤ 10 min
[1]; i.v., doses higher than 5.6 mg/kg
  acute toxicity: signs of acute toxicity
[1]; i.v.
  time for DA levels to return to basal levels after injection: ≤ 45 min

## CC(=O)c1ccc2c(c1)oc(=O)n2CCCCN1CCN(c2ccc(F)cc2)CC1 [SN79]
[1]; 1–3 mg/kg i.p., up to 100 min after administration
  effect on extracellular levels of DA, antagonist alone: did not significantly modify
